Each structure is given as a SMILES string.

What is called ΔTm is the shift of the melting midpoint relative to a reference.

For experiment [1], the system named is poly rA-poly rU (RNA, polymer) A/U. In words: UV thermal melting at 260 nm. Particulars: Na+ (sodium cacodylate, I = 0.05 M), pH 7.0, polynucleotide 20 µM nucleotide, r [compound]/[polynucleotide] = 0.3, error ±0.5 °C, per base.
For experiment [2], the system named is poly dAdT-poly dAdT (DNA, polymer) AT. In words: fluorimetric titration, Scatchard. Particulars: Na+ (sodium cacodylate, I = 0.05 M), pH 7.0, per phosphate (nucleotide), n fixed at 0.2, <0.1% DMSO, per base.
In experiment [3] the test system is Tel22 (DNA, G4) AGGGTTAGGGTTAGGGTTAGGG
The experiment can be described thus: fluorimetric titration, SPECFIT. Conditions: Na+ (sodium cacodylate, I = 0.1 M), pH 7.0, <0.1% DMSO.

Experiment [4] concerns poly dGdC-poly dGdC (DNA, polymer) GC. In words: fluorimetric titration, Scatchard. Particulars: Na+ (sodium cacodylate, I = 0.05 M), pH 7.0, per phosphate (nucleotide), n fixed at 0.2, <0.1% DMSO, per base.
Experiment [5] deals with poly dAdT-poly dAdT (DNA, polymer) AT. The experiment can be described thus: UV thermal melting at 260 nm. Particulars: Na+ (sodium cacodylate, I = 0.05 M), pH 7.0, polynucleotide 20 µM nucleotide, r [compound]/[polynucleotide] = 0.3, error ±0.5 °C, per base.
For experiment [6], the system named is Tel22 (DNA, G4) AGGGTTAGGGTTAGGGTTAGGG
In words: UV thermal melting at 260 nm. Particulars: Na+ (sodium cacodylate, I = 0.1 M), pH 7.0, Tel22 1–2 µM, r [compound]/[Tel22] = 4.

The mark [7] stands for this setting: Na-cacodylate buffer, concentration as oligonucleotide.

`NC(N)=Nc1cc2ccccc2c2ccccc12`: the ΔTm entry is “+1.3 °C” in experiment [1] and “+0.9 °C” in experiment [5]. Besides, the “log Ks” value in experiment [2] is 6.27 log Ks; in experiment [4] it was 5.34 log Ks. Besides, the “log K1” value in experiment [3] (setting [7]) is reported as 5.61 ± 0.02 log K.

Take `N=C(N)Nc1ccc(-c2c3nc(c(-c4ccccc4)c4ccc([nH]4)c(-c4ccccc4)c4nc(c(-c5ccccc5)c5ccc2[nH]5)C=C4)C=C3)cc1`: the “log K1” value in experiment [3] (Na-cacodylate, second step LG + G = LG2 log K2 5.07 ± 0.26) is reported as 7.23 ± 0.49 log K.

On to `N=C(N)Nc1ccc2ccccc2c1`, for which the ΔTm in experiment [1] and in experiment [5] was 0 °C each time. Also, the “log Ks” value in experiment [2] is 4.17 log Ks. Moreover, in experiment [3] (setting [7]), the “log K1” value was determined as 5.36 ± 0.07 log K. For the same compound, the binding entry in experiment [6] is recorded as “weak”.

Regarding `N=C(N)Nc1ccc2c3c(cccc13)-c1ccccc1-2`, the ΔTm entry is “+0.9 °C” in experiment [1] and 0 °C in experiment [5]. For the same compound, the “log K1” value in experiment [3] (setting [7]) is 5.26 ± 0.13 log K.

As for `N=C(N)Nc1ccc2c(c1)Cc1ccccc1-2`, the ΔTm in experiment [1] is −1.0 °C; in experiment [5], 0 °C. Also, the “log K1” value in experiment [3] (setting [7]) is on record as 5.78 ± 0.08 log K.

For the origin of these results see PMC12472303 (2025).
